Measured values as given in US8952024B2, “Herbicidal pyrimidone derivatives” (E I du Pont de Nemours and Company, priority 2009, dated 2015).

Columns and labels:
Assay type in all cases: in vivo
rice (Oryza sativa) = assay: Test B flooded paddy test; conditions: for Plant response rating, Flood, Rice: 250 g ai/ha, flooded paddy test, visual rating on 0 to 100 scale (0 no effect, 100 complete control) after 13 to 15 days; for Plant response rating, Rice: Flood (flooded paddy test), 13 to 15 days; for Rice plant response rating: Flood, 31 g ai/ha, scale 0 to 100 (0 no effect, 100 complete control)
Summary of the method: (§1)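 Plants were grown to the 2-leaf stage, then pots were flooded to 3 cm above the soil and compounds were applied directly into the paddy water. That depth was held throughout. After 13 to 15 days in a greenhouse, injury was visually rated against controls on a 0–100 scale.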

[1] = system: umbrella sedge (Cyperus difformis); assay: Test B flooded paddy test; conditions: for Plant response rating, Flood, Sedge, Umbrella: 250 g ai/ha, flooded paddy test, visual rating on 0 to 100 scale (0 no effect, 100 complete control) after 13 to 15 days; for Plant response rating, Sedge, Umbrella: Flood (flooded paddy test), 13 to 15 days; for Sedge, Umbrella plant response rating: Flood, 31 g ai/ha, scale 0 to 100 (0 no effect, 100 complete control)
Summary of the method: as §1

[2] = system: barnyardgrass (Echinochloa crus-galli); assay: Test B flooded paddy test; conditions: for Plant response rating, Flood, Barnyardgrass: 250 g ai/ha, flooded paddy test, visual rating on 0 to 100 scale (0 no effect, 100 complete control) after 13 to 15 days; for Plant response rating, Barnyardgrass: Flood (flooded paddy test), 13 to 15 days; for Barnyardgrass plant response rating: Flood, 31 g ai/ha, scale 0 to 100 (0 no effect, 100 complete control)
Summary of the method: as §1

[3] = system: ducksalad (Heteranthera limosa); assay: Test B flooded paddy test; conditions: for Plant response rating, Flood, Ducksalad: 250 g ai/ha, flooded paddy test, visual rating on 0 to 100 scale (0 no effect, 100 complete control) after 13 to 15 days; for Plant response rating, Ducksalad: Flood (flooded paddy test), 13 to 15 days; for Ducksalad plant response rating: Flood, 31 g ai/ha, scale 0 to 100 (0 no effect, 100 complete control)
Summary of the method: as §1

[4] = system: large crabgrass (Digitaria sanguinalis); assay: Test A pre-/postemergence plant response; conditions: for Crabgrass, Large plant response rating: visual injury, 0 to 100 scale (0 no effect, 100 complete control), approx. ten days
Summary of the method: (§2)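 Pre: directed soil spray on seeded loam/sand blend. Post: same formulation (non-phytotoxic solvent + surfactant) on 2–10 cm plants, 1–2 leaf stage. Greenhouse ~10 d; visual injury score 0–100 vs untreated.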

[5] = system: wheat (Triticum aestivum); assay: Test A pre-/postemergence plant response; conditions: for Wheat plant response rating: visual injury, 0 to 100 scale (0 no effect, 100 complete control), approx. ten days
Summary of the method: as §2

[6] = system: pigweed (Amaranthus retroflexus); assay: Test A pre-/postemergence plant response; conditions: for Pigweed plant response rating: visual injury, 0 to 100 scale (0 no effect, 100 complete control), approx. ten days
Summary of the method: as §2

corn (Zea mays) = assay: Test A pre-/postemergence plant response; conditions: for Corn plant response rating: visual injury, 0 to 100 scale (0 no effect, 100 complete control), approx. ten days
Summary of the method: as §2

[7] = system: barnyardgrass (Echinochloa crus-galli); assay: Test A pre-/postemergence plant response; conditions: for Barnyardgrass plant response rating: visual injury, 0 to 100 scale (0 no effect, 100 complete control), approx. ten days
Summary of the method: as §2

[8] = system: morningglory (Ipomoea spp.); assay: Test A pre-/postemergence plant response; conditions: for Morningglory plant response rating: visual injury, 0 to 100 scale (0 no effect, 100 complete control), approx. ten days
Summary of the method: as §2

[9] = system: giant foxtail (Setaria faberii); assay: Test A pre-/postemergence plant response; conditions: for Foxtail, Giant plant response rating: visual injury, 0 to 100 scale (0 no effect, 100 complete control), approx. ten days
Summary of the method: as §2

[10] = system: velvetleaf (Abutilon theophrasti); assay: Test A pre-/postemergence plant response; conditions: for Velvetleaf plant response rating: visual injury, 0 to 100 scale (0 no effect, 100 complete control), approx. ten days
Summary of the method: as §2

[11] = 62 g ai/ha, scale of 0 to 100 where 0 is no effect and 100 is complete control
[12] = 125 g ai/ha, scale 0 to 100, 0 is no effect, 100 is complete control
[13] = Postemergence, 125 g ai/ha, 0 to 100 scale where 0 is no effect and 100 is complete control
[14] = Preemergence, 125 g ai/ha, 0 to 100 scale, 0 = no effect, 100 = complete control
[15] = Preemergence, 500 g ai/ha, 0 to 100 scale, 0 = no effect, 100 = complete control

`COc1ccc(-n2c(-c3cccc(C)c3)ncc(C(=O)C3=C(O)CCCC3=O)c2=O)cc1` [Compound 212] was tested, and the “Plant response rating, Flood, Rice” value (rice (Oryza sativa)) was 10, the “Plant response rating, Rice” value (rice (Oryza sativa); [11]) was 0 and the “Plant response rating, Rice” value (rice (Oryza sativa); [12]) was 0. For the same compound, the “Rice plant response rating” value (rice (Oryza sativa)) was 0, the “Plant response rating, Flood, Sedge, Umbrella” value [1] was 95 and the “Plant response rating, Sedge, Umbrella” value [1, 11] was 85. For the same compound, the “Plant response rating, Sedge, Umbrella” value [1, 12] was 90, the “Sedge, Umbrella plant response rating” value [1] was 80 and the “Plant response rating, Flood, Barnyardgrass” value [2] was 50. For the same compound, the “Plant response rating, Barnyardgrass” value [2, 11] was 0, the “Plant response rating, Barnyardgrass” value [2, 12] was 0 and the “Barnyardgrass plant response rating” value [2] was 0. For the same compound, the “Plant response rating, Flood, Ducksalad” value [3] was 95, the “Plant response rating, Ducksalad” value [3, 11] was 85 and the “Plant response rating, Ducksalad” value [3, 12] was 90. The “Ducksalad plant response rating” value [3] was 85, the “Plant response rating, Crabgrass, Large” value [4, 13] was 10 and the “Crabgrass, Large plant response rating” value ([4]; Postemergence, 500 g ai/ha) was 30. For the same compound, the “Plant response rating, Crabgrass, Large” value [4, 14] was 0, the “Plant response rating, Crabgrass, Large” value [4, 15] was 40 and the “Plant response rating, Wheat” value [5, 13] was 0. For the same compound, the “Wheat plant response rating” value ([5]; Postemergence, 500 g ai/ha) was 0, the “Plant response rating, Wheat” value [5, 14] was 0 and the “Plant response rating, Wheat” value [5, 15] was 0. For the same compound, the “Plant response rating, Pigweed” value [6, 13] was 100, the “Pigweed plant response rating” value ([6]; Postemergence, 500 g ai/ha) was 100 and the “Plant response rating, Pigweed” value [6, 14] was 60. The “Plant response rating, Pigweed” value [6, 15] was 90, the “Plant response rating, Corn” value (corn (Zea mays); [13]) was 0 and the “Corn plant response rating” value (corn (Zea mays); Postemergence, 500 g ai/ha) was 0. The “Plant response rating, Corn” value (corn (Zea mays); [14]) was 0, the “Plant response rating, Corn” value (corn (Zea mays); [15]) was 0 and the “Plant response rating, Barnyardgrass” value [7, 13] was 50. The “Barnyardgrass plant response rating” value ([7]; Postemergence, 500 g ai/ha) was 100, the “Plant response rating, Barnyardgrass” value [7, 14] was 10 and the “Plant response rating, Barnyardgrass” value [7, 15] was 90. The “Plant response rating, Morningglory” value [8, 13] was 50, the “Morningglory plant response rating” value ([8]; Postemergence, 500 g ai/ha) was 100 and the “Plant response rating, Morningglory” value [8, 14] was 0. The “Plant response rating, Morningglory” value [8, 15] was 80, the “Plant response rating, Foxtail, Giant” value [9, 13] was 0 and the “Foxtail, Giant plant response rating” value ([9]; Postemergence, 500 g ai/ha) was 40. The “Plant response rating, Foxtail, Giant” value [9, 14] was 10, the “Plant response rating, Foxtail, Giant” value [9, 15] was 50 and the “Plant response rating, Velvetleaf” value [10, 13] was 70. The “Velvetleaf plant response rating” value ([10]; Postemergence, 500 g ai/ha) was 70, the “Plant response rating, Velvetleaf” value [10, 14] was 50 and the “Plant response rating, Velvetleaf” value [10, 15] was 70.

With `CCc1ccc(-n2c(-c3cccc(C)c3)ncc(C(=O)C3=C(O)CCCC3=O)c2=O)cc1` [Compound 213] the “Plant response rating, Flood, Rice” value (rice (Oryza sativa)) was 20, the “Plant response rating, Rice” value (rice (Oryza sativa); [11]) was 0 and the “Plant response rating, Rice” value (rice (Oryza sativa); [12]) was 0. For the same compound, the “Rice plant response rating” value (rice (Oryza sativa)) was 0, the “Plant response rating, Flood, Sedge, Umbrella” value [1] was 90 and the “Plant response rating, Sedge, Umbrella” value [1, 11] was 80. For the same compound, the “Plant response rating, Sedge, Umbrella” value [1, 12] was 85, the “Sedge, Umbrella plant response rating” value [1] was 65 and the “Plant response rating, Flood, Barnyardgrass” value [2] was 30. The “Plant response rating, Barnyardgrass” value [2, 11] was 0, the “Plant response rating, Barnyardgrass” value [2, 12] was 0 and the “Barnyardgrass plant response rating” value [2] was 0. For the same compound, the “Plant response rating, Flood, Ducksalad” value [3] was 100, the “Plant response rating, Ducksalad” value [3, 11] was 85 and the “Plant response rating, Ducksalad” value [3, 12] was 90. The “Ducksalad plant response rating” value [3] was 75, the “Plant response rating, Crabgrass, Large” value [4, 13] was 20 and the “Crabgrass, Large plant response rating” value ([4]; Postemergence, 500 g ai/ha) was 50. For the same compound, the “Plant response rating, Crabgrass, Large” value [4, 14] was 0, the “Plant response rating, Crabgrass, Large” value [4, 15] was 50 and the “Plant response rating, Wheat” value [5, 13] was 0. For the same compound, the “Wheat plant response rating” value ([5]; Postemergence, 500 g ai/ha) was 0, the “Plant response rating, Wheat” value [5, 14] was 0 and the “Plant response rating, Wheat” value [5, 15] was 0. The “Plant response rating, Pigweed” value [6, 13] was 80, the “Pigweed plant response rating” value ([6]; Postemergence, 500 g ai/ha) was 100 and the “Plant response rating, Pigweed” value [6, 14] was 50. The “Plant response rating, Pigweed” value [6, 15] was 90, the “Plant response rating, Corn” value (corn (Zea mays); [13]) was 0 and the “Corn plant response rating” value (corn (Zea mays); Postemergence, 500 g ai/ha) was 20. For the same compound, the “Plant response rating, Corn” value (corn (Zea mays); [14]) was 0, the “Plant response rating, Corn” value (corn (Zea mays); [15]) was 0 and the “Plant response rating, Barnyardgrass” value [7, 13] was 20. For the same compound, the “Barnyardgrass plant response rating” value ([7]; Postemergence, 500 g ai/ha) was 100, the “Plant response rating, Barnyardgrass” value [7, 14] was 0 and the “Plant response rating, Barnyardgrass” value [7, 15] was 30. For the same compound, the “Plant response rating, Morningglory” value [8, 13] was 60, the “Morningglory plant response rating” value ([8]; Postemergence, 500 g ai/ha) was 100 and the “Plant response rating, Morningglory” value [8, 15] was 60. For the same compound, the “Plant response rating, Foxtail, Giant” value [9, 13] was 10, the “Foxtail, Giant plant response rating” value ([9]; Postemergence, 500 g ai/ha) was 40 and the “Plant response rating, Foxtail, Giant” value [9, 14] was 10. The “Plant response rating, Foxtail, Giant” value [9, 15] was 30, the “Plant response rating, Velvetleaf” value [10, 13] was 70 and the “Velvetleaf plant response rating” value ([10]; Postemergence, 500 g ai/ha) was 60. For the same compound, the “Plant response rating, Velvetleaf” value [10, 14] was 40 and the “Plant response rating, Velvetleaf” value [10, 15] was 60.
